Values after ≈ are worked out from the molar mass of the structure shown. Each block holds one molecule with its values, some of them ahead of it.
How the values were obtained:
[1] = system: HIV-1 strain NL4.3; test: Anti-HIV-1 assay in MT-4 cells (p24 Ag ELISA, Example 3); format: cell-based; details: MT-4 cells; for IC50: Human immunodeficiency virus 1, MT4, read-out: IC50 HIV-1 (NL4.3), p24 Ag ELISA
Method: Antiviral Assays. For HIV-1, MT-4 cells were infected with the HIV-1 strain NL4.3. Briefly, five-fold dilutions of the compounds (in 100 μl) were added to 96-well flat bottom plates (Iwaki, Japan). Then, to each well, 7.5×10^4 MT-4 cells were added in 50 μl medium, followed by 50 μl of diluted HIV-1 stock (strain NL4.3). Cytopathic effect (CPE) induced by the virus was checked regularly microscopically. When strong CPE was observed (after 3 to 5 days of incubation) in untreated HIV-1 infected cells, the supernatant was collected, stored at −20° C. and analyzed for HIV-1 core antigen by p24 Ag ELISA (NEN™, PerkinElmer Life Sciences, Boston, Mass.). Finally, the IC50 value of the compounds (i.e., the concentration of the compound required for 50% reduction of HIV infection as measured by viral p24 antigen level in the supernatant of infected MT-4 cells) was calculated.

[2] = system: HHV-7 (KHR strain); test: Anti-HHV-7 assay in SupT1 cells (antigen expression, flow cytometry, Example 3); format: cell-based; details: SupT1 cells; for IC50: SUP-T1, read-out: IC50 HHV-7 (50% reduction of HHV-7 antigen expression)
Method: For HHV-7, five-fold dilutions of the compounds were added in 500 μl culture medium in 24-well flat bottom plates (Iwaki, Japan), whereupon 2×10^5 SupT1 cells were added in 400 μl culture medium. After 30 min incubation at room temperature, 100 μl of HHV-7 stock was added to each well. HHV-7-infected and mock-infected SupT1 cells were cultured in a final volume of 1 ml medium in the absence of the compounds. On day 4, half of the medium and the cells were replaced and fresh medium without new compound was added. This procedure was repeated every 2 or 3 days. The CPE was checked regularly microscopically. When CPE was observed, the HHV-7 antigen expression was monitored by flow cytometry, as described previously (Zhang, Y. et al. (1999) “Selective activity of various antiviral compounds against HHV-7 infection Antiviral Res. 43, 23-35.)

[3] = system: SupT1 cells; test: Cytotoxicity assay (trypan blue exclusion, propidium iodide); format: cell-based, human
Method: (§1) Cytotoxicity Assay. Cellular toxicity of the compounds was measured by trypan blue exclusion and also by Propidium Iodide by flow cytometry after 3 or 4 days of incubation, in parallel with the CD4 antigen expression. The CC50 value of each CADA analog is the concentration (in μg/ml) required to reduce the viability of the cells by 50%.

[4] = system: MT-4 cells; test: as above; format: cell-based, human
Method: as §1

[5] = target: T1, CD4 (Homo sapiens, UniProt P01730); test: CD4 down-modulation, flow cytometry with FITC-conjugated anti-CD4 (SK3) mAb, MT-4 cells; format: cell-based; design: To study the effect of the CADA derivatives on surface CD4 antigen expression, MT-4 and SupT1 cells were incubated; endogenous in cells; host or cells: MT-4, SupT1, PBMC; details: for IC50: read-out: IC50 CD4 (50% inhibition of extracellular CD4 expression) (converted)
Method: Flow Cytometric Analyses. To study the effect of the CADA derivatives on surface CD4 antigen expression, MT-4 and SupT1 cells were incubated with a serial 5-fold dilution of the compounds (50, 10, 2, 0.4 and 0.08 μg/ml) or medium at 37° C. […] Briefly, after washing with phosphate-buffered saline (PBS) containing 2% fetal calf serum (FCS), cells were incubated with FITC-conjugated anti-CD4 (SK3) mAb for 30 min at 4° C. As a negative control for a specific background staining, cells were stained in parallel with Simultest Control γ1/γ^2a (Becton Dickinson). Then the cells were washed, fixed with 1% formaldehyde and analyzed by flow cytometry in a FACScalibur (Becton Dickinson, San Jose, Calif., USA). Data were acquired and analyzed with CellQuest software (Becton Dickinson). For the calculation of the CD4 receptor expression, the mean fluorescence intensity (MFI) of each sample was expressed as percentage of the MFI of control cells (after subtracting the MFI of the isotype control). Finally, the IC50 value of the compounds (i.e., the concentration of the compound required for 50% inhibition of extracellular CD4 expression) was calculated.

[6] = target: T1, CD4; test: CD4 down-modulation, flow cytometry with FITC-conjugated anti-CD4 (SK3) mAb, SupT1 cells; format: cell-based; design: To study the effect of the CADA derivatives on surface CD4 antigen expression, MT-4 and SupT1 cells were incubated; endogenous in cells; host or cells: MT-4, SupT1, PBMC; details: for IC50: day 4, read-out: IC50 CD4 (50% inhibition of extracellular CD4 expression) (converted)
Method: Flow Cytometric Analyses. To study the effect of the CADA derivatives on surface CD4 antigen expression, MT-4 and SupT1 cells were incubated with a serial 5-fold dilution of the compounds (50, 10, 2, 0.4 and 0.08 μg/ml) or medium at 37° C. Cell surface CD4 antigen expression was analyzed at day 3 (MT-4) or day 4 (SupT1). Briefly, after washing with phosphate-buffered saline (PBS) containing 2% fetal calf serum (FCS), cells were incubated with FITC-conjugated anti-CD4 (SK3) mAb for 30 min at 4° C. As a negative control for a specific background staining, cells were stained in parallel with Simultest Control γ1/γ^2a (Becton Dickinson). Then the cells were washed, fixed with 1% formaldehyde and analyzed by flow cytometry in a FACScalibur (Becton Dickinson, San Jose, Calif., USA). Data were acquired and analyzed with CellQuest software (Becton Dickinson). For the calculation of the CD4 receptor expression, the mean fluorescence intensity (MFI) of each sample was expressed as percentage of the MFI of control cells (after subtracting the MFI of the isotype control). Finally, the IC50 value of the compounds (i.e., the concentration of the compound required for 50% inhibition of extracellular CD4 expression) was calculated.

[7] = system: HHV-7 (KHR strain); test: Anti-HHV-7 assay (HHV-7 antigen expression, flow cytometry, day 12); format: cell-based; details: SUP-T1, read-out: IC50 for HHV-7 infection
Method: The antiviral activity of CADA against HIV-1 and RHV-7 was investigated. PBMCs and […] cell-depleted PBMCs (removed with CD8 magnetic beads; Dynal AS, Oslo, Norway), previously activated with purified PHA (2 μg/ml) and rhIL-2 (1 ng/ml) for 3 days, were pelleted and exposed to HIV-1 (1 ng p24 Ag per 10^6 cells) for 2 hours at 370C. Then the cells were washed three times with warm medium and cultured in complete medium containing rhIL-2 (1 ng/ml) in the presence or absence of different concentrations of CADA hydrochloride. The anti-HIV-1 assays were also performed in MT-4 and SupT1 cells. CADA hydrochloride was diluted in the plates, then the MT-4 cells or SupT1 cells were added and finally the T-tropic HIV-1 strains. The supernatant was collected at day 5 for MT-4 cells, day 8 for SupT1 cells and day 12 for PBMCs, and stored at −20° C. and analyzed for HIV-1 core antigen by p24 Ag ELISA (NEN, Brussels, Belgium). The SupT1 cells were refreshed on day 4, and half of the medium and cells were replaced and fresh CADA-free medium was added. For the PBMCs, fresh culture medium was added at day 6 containing rhIL-2 (but no CADA). For the anti-HHV-7 assays in PBMCs, CADA hydrochloride was diluted in a plate, 2×10˜cells were added and then HHV-7 (KHR strain) was added in complete medium containing rhIL-2 (1 ng/ml). Fresh culture medium was added again at day 6 containing rhIL-2 (but no CADA). The same infection protocol was used for the SupT1 cells, but without rhIL-2. The SupT1 cells were refreshed on day 4 and day 8, half of the medium and the cells were replaced, and fresh medium without CADA was added. The HHV-7 antigen expression was monitored (at day 12) with a specific mAb to HHV-7 (RK-4) (Advanced Biotechnologies, Columbia, Md.) by flow cytometry, as described previously (Thang, Y., et al., Antiviral Res. 43:23-35 (1999)).

[8] = target: T1, CD4; test: Cell surface CD4 expression by flow cytometry (anti-CD4 mAb Leu3a-PE); format: cell-based; design: To study the effect of the CADA derivatives on surface CD4 antigen expression, MT-4 and SupT1 cells were incubated; endogenous in cells; host or cells: MT-4, SupT1, PBMC; details: for percentage of cell surface CD4 expression: SupT1 cells, ATA 24 μM, CADA 16 μM, PMA 8 nM (FIG. 4)
Method: FIGS. 2A-2C. Surface CD4 expression in MT-4 cell line, SupT1 cell line and PBMCs after incubation with CADA hydrochloride (3.2 or 16 μM) for 1 and 4 days. (A) Cell surface CD4 expression of control MT-4 cells and MT-4 cells treated with CADA (3.2 μM) for 1 day or 4 days. (B) Cell surface CD4 expression of control SupT1 cells and SupT1 cells treated with CADA (3.2 μM) for 1 day or 4 days. (C) Cell surface CD4 expression of control PBMCs and PBMCs treated with CADA (16 μM) for 1 day or 4 days. The cells were stained with anti-CD4 mAb (Leu3a-PE). Percentages of fluorescent cells and MFI (mean fluorescence intensity) are indicated in each histogram.
FIG. 4. Comparison of the effects on CD4 modulation by ATA (24 μM), CADA hydrochloride (16 μM) and PMA (8 nM) in SupT1 cells after incubation with the compounds analyzed after 20 minutes, 4 hours, 1 day and 4 days.
Cells were incubated with CADA hydrochloride and the CD4 expression on the cell surface was analyzed. […] In peripheral blood mononuclear cells (PBMCs), the percentage of CD4 expression decreased to 0.2% after incubation with CADA (16 μM) for 4 days (FIG. 2).
Expression of various other surface antigens was also examined in MT-4 cells, SupT1 cells and PBMCs after incubation with CADA (16 μM) or CADA-free medium at 37° C. for 4 days. After washing with phosphate-buffered saline (PBS) containing 2% FCS(fetal calf serum), the cells were incubated with mAb (as indicated in Table 1) for 20 min at 4° C. Then the cells were washed, fixed with 1% formaldehyde and analyzed by flow cytometry. All mAbs were purchased from Becton-Dickinson (Erembodegem, Belgium).
CADA was compared with ATA and PMA with regard to their down-modulating effects. […] At day 4, the CD4 expression in SupT1 cells treated with CADA reduced to 1.2%.

[9] = Cytotoxic concentration (Example 2); format: cell-based; details: human, MT-4 cells; read-out: CC50
[10] = Cytotoxic concentration (Example 2); format: cell-based; details: human, SupT1 cells; read-out: CC50
[11] = system: HIV-1 and HHV-7; test: Selectivity index (ratio of CC50 to IC50), antiviral assays; format: cell-based; details: over the viruses and cell types tested
Method: The IC50 of CADA against the CCR5-using (R5) HIV-1 strain BaL was 0.8 μM in PBMCs. […] The IC50 of PMA for the HIV-1 strains (IIIB, RF and NL4.3) in MT-4 cells was about 0.3 nM, and the IC50 for HHV-7 infection in SupT1 cells was 0.6 nM.

[12] = Cytotoxicity assay (trypan blue exclusion, propidium iodide); format: cell-based, human; details: human, read-out: CC50 (50% cytotoxic concentration)
Method: as §1

Structure (SMILES): C=C1CN(S(=O)(=O)c2ccc(C)cc2)CCCN(Cc2cccnc2)CCCN(S(=O)(=O)c2ccc(C)cc2)C1 [AS-N6P6]
IC50 HIV-1 (NL4.3), p24 Ag ELISA [1]: 2.38 µg/mL (≈ 4.08 µM)
IC50 HHV-7 (50% reduction of HHV-7 antigen expression) [2]: 1.50 µg/mL
CC50 (50% cytotoxic concentration) [3]: >50 µg/mL
CC50 (50% cytotoxic concentration) [4]: 21.4 µg/mL (≈ 36.7 µM)
IC50 CD4 (50% inhibition of extracellular CD4 expression) ([5]; MT-4 cells, day 3): 3.22 µg/mL
CD4 down-modulating activity, fold less active than CADA ([5]; compared to CADA, MT-4 cells (stated for some compounds)): 7 fold
IC50 CD4 (50% inhibition of extracellular CD4 expression) ([6]; day 4): 4.27 µg/mL

Structure (SMILES): CCCCCCCCCCCCCC(=O)O[C@@H]1[C@@H](C)[C@@]2(O)[C@@H](C=C(CO)C[C@]3(O)C(=O)C(C)=C[C@@H]23)[C@@H]2C(C)(C)[C@]12OC(C)=O [PMA, Phorbol myristate acetate, reference compound]
IC50 [7]: 0.0006 µM
percentage of cell surface CD4 expression ([8]; 20 minutes): only a slight CD4 decrease
percentage of cell surface CD4 expression ([8]; 4 hours): dramatically decreased
percentage of cell surface CD4 expression ([8]; 1 day): almost undetectable
percentage of cell surface CD4 expression ([8]; 4 days): 81.6%
CC50 [9]: 0.0021 µM
CC50 [10]: 0.0015 µM
selectivity index (SI), ratio of CC50 to IC50 [11]: 2-7

down-regulation of CD4 expression (in words) [8]: down-regulate CD4 expression
IC50 [1]: 4.23 µg/mL (≈ 7.56 µM)
IC50 [2]: 1.55 µg/mL (≈ 2.77 µM)
IC50 ([5]; MT-4 cells, day 3): 9.54 µM
IC50 [6]: 14.1 µM
Structure (SMILES): C=C1CN(S(=O)(=O)c2ccc(C)cc2)CCCN(C2CCCC2)CCCN(S(=O)(=O)c2ccc(C)cc2)C1 [QJ040]
CC50 ([12]; MT-4 cells): 17 µg/mL (≈ 30.4 µM)
CC50 ([12]; SupT1 cells): 20.5 µg/mL (≈ 36.6 µM)

down-regulation of CD4 expression (in words) [8]: down-regulate CD4 expression
IC50 [1]: 3.66 µg/mL (≈ 6.71 µM)
IC50 [2]: 1.76 µg/mL (≈ 3.22 µM)
IC50 ([5]; MT-4 cells, day 3): 6.38 µM
CD4 down-modulating activity compared with CADA or parent analog (in words) ([5]; structure-activity discussion of Table 5 (MT-4 and SupT1 cells)): reduced the activity
IC50 [6]: 7.6 µM
Structure (SMILES): C=C1CN(S(=O)(=O)c2ccc(C)cc2)CCCN(CC2CC2)CCCN(S(=O)(=O)c2ccc(C)cc2)C1 [QJ041]
CC50 ([12]; MT-4 cells): 18.6 µg/mL (≈ 34.1 µM)
CC50 ([12]; SupT1 cells): 21.9 µg/mL (≈ 40.1 µM)

— US20040220164A1, “Triaza compound immunoregulatory agents” (priority 2001, published 2004)
